Assay results taken from patent publication US20240316061A1, “BET INHIBITORS FOR TREATING PAB1 DEFICIENT CANCER” (INSTITUT CURIE, priority 2021, published 2024).

How the values were obtained:
Type in all cases: cell-based
[1] = tested on: isogenic HAP1 cells (Wild-type or BAP1 knockout); assay: Proliferation of isogenic HAP1 cells exposed to BI894999, CellTiter-Glo; conditions: increasing concentration for 7 days; FIG. 3
Method: Proliferation of isogenic HAP1 cells (Wild-type or BAP1 knockout) exposed to increasing concentration of the BET inhibitor BI894999 for 7 days. Proliferation was measured using the CellTiter-Glo Luminescent Cell Viability assay.

[2] = tested on: human BAP1 cells either wild type or BAP1 knockout; assay: Proliferation of BAP1 wild type or BAP1 knockout cells exposed to OTX015, Cell Titer Glow; conditions: increasing dose for 12 days, compound renewed after 6 days; FIG. 1
Method: Proliferation of human BAP1 cells either wild type or BAP1 knockout (generated by genome editing) exposed to increasing dose of OTX015 for 12 days Cells were grown in IMDM and compound was renewed after 6 days. Cell viability was measured using Cell Titer Glow.

[3] = tested on: uveal melanoma derived cells wild type for BAP1 (MP41 and MM66) or BAP1 inactivated (MP46 and MP38); assay: Proliferation of uveal melanoma derived cells exposed to OTX015, MTT assay; conditions: increasing concentration for 12 days; MP46, MP38 vs MP41, MM66; FIG. 2
Method: Proliferation of uveal melanoma derived cells either wild type for BAP1 (MP41 and MM66) or for which BAP1 is inactivated (MP46 and MP38). Cells were exposed to increasing concentration of OTX015 for 12 days, Proliferation was measured using the MTT assay.

Row | SMILES | Dose response (proliferation) in BAP1 knockout HAP1 cells compared to HAP1 cells expressing BAP1 [1] | Dose response (proliferation) of BAP1 KO cells compared to BAP1 WT cells [2] | Dose response (proliferation) in BAP1 mutated UM derived cells compared to UM cells expressing BAP1 [3]
1 | CNc1nc(-c2nc3ccc(N4CCN(C)CC4)cc3n2Cc2ccccc2)cn2c(C)nnc12 [BI894999] | enhanced dose response | – | –
2 | Cc1sc2c(c1C)C(c1ccc(Cl)cc1)=N[C@@H](CC(=O)Nc1ccc(O)cc1)c1nnc(C)n1-2 [OTX015] | – | highest dose response | enhanced dose response
